Results published in ChEMBL document CHEMBL5154887, “Novel CRBN-Recruiting Proteolysis-Targeting Chimeras as Degraders of Stimulator of Interferon Genes with In Vivo Anti-Inflammatory Efficacy” (J Med Chem, 2022).

Assays:
[1] = target: T1, Protein cereblon/Stimulator of interferon genes protein (Homo sapiens, UniProt Q96SW2+Q86WV6); assay: Protac activity at CRBN/STING in human THP-1 cells assessed as increase in STING degradation at 10 uM incubated for 48 hrs by Western blot analysis relative to control; format: cell-based
Target sequence in this assay (Q86WV6 whole entry, looked up): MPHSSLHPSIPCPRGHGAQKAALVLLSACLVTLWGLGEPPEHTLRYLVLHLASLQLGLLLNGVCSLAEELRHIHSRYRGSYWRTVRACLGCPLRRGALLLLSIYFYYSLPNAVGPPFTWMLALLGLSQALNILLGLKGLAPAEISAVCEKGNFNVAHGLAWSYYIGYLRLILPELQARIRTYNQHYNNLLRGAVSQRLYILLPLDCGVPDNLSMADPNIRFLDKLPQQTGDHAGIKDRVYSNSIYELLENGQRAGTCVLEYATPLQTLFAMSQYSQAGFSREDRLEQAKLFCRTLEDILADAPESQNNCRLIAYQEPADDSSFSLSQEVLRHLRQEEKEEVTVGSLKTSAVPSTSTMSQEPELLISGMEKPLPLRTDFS
Target sequence in this assay (Q96SW2 whole entry, looked up): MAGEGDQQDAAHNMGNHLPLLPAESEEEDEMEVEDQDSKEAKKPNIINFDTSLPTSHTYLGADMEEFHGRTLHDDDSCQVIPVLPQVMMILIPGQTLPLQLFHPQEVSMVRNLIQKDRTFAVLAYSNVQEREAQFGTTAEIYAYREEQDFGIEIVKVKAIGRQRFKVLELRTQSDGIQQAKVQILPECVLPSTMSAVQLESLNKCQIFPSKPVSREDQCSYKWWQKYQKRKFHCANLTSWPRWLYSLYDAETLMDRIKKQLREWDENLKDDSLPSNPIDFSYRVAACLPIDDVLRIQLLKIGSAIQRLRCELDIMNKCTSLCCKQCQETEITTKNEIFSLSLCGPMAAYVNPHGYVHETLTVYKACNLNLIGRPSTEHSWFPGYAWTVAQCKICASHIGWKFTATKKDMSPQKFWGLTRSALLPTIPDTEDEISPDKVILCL

[2] = target: T1, Protein cereblon/Stimulator of interferon genes protein; assay: Protac activity at CRBN/STING in human THP-1 cells assessed as increase in STING degradation incubated for 48 hrs by Western blot analysis; format: cell-based
Target sequence in this assay (Q96SW2 whole entry): as the sequence (Q96SW2 whole entry, looked up) above
Target sequence in this assay (Q86WV6 whole entry): as the sequence (Q86WV6 whole entry, looked up) above

[3] = Cytotoxicity against mouse C17.2 cells assessed as reduction in cell viability at <10 uM by MTT assay; format: toxicity, cell-based; details: c17.2, 10 µM
L02 = assay: Cytotoxicity against human L02 cells assessed as reduction in cell viability at <10 uM by MTT assay; format: toxicity, cell-based; details: l02, 10 µM
[4] = Cytotoxicity against HEK293-A cells assessed as reduction in cell viability at <10 uM by MTT assay; format: toxicity, cell-based; details: human

Activity [1]: 62%
DC50 [2]: 9.2 µM
SMILES: O=C(/C=C/C(=O)Nc1ccc(NC(=O)c2ccc([N+](=O)[O-])o2)cc1)NCCCCCNc1cccc2c1C(=O)N(C1CCC(=O)NC1=O)C2=O (stereo not given)
Activity [3]: Non-Toxic
Activity (L02): Non-Toxic
Activity [4]: Non-Toxic
